Biological target: T1, Ba/F3 cell EGFR Exon20 ins NPH (Homo sapiens, UniProt P00533, INS773NPH)
T1 construct: expressed in transfected cells; host or cells: Ba/F3
Assay: Ba/F3 cell proliferation suppression, EGFR Exon20 ins NPH
Assay type: cell-based
Conditions: GI50 class; Ba/F3 cell line with NPH inserted at Exon20 of EGFR; 72 hours
Outline: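 Cells were seeded 24 h before dosing and then treated for 72 hours with compound at final concentrations of 0.3 nM to 50 um. Live cells were measured by CellTiter-Glo luminescence, and GI50 values were derived from growth ratio relative to control across three repeats.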

Row | SMILES | Ba/F3 (NPH) Activity
1 | C=CC(=O)Nc1cc(Nc2cc(N3OCC[C@@H]3c3cccc4ccccc34)ncn2)c(OC)cc1N1CCC(N2CCN(C3CC3)[C@@H](C)C2)CC1 [Example 156, N-(2-(4-((S)-4-cyclopropyl-3-methylpiperazine-1-yl)piperidine-1-yl)-4-methoxy-5-((6-((R)-3-(naphthalene-1-yl)isoxazolidine-2-yl)pyrimidine-4-yl)amino)phenyl)acrylamide] | A (GI50 < 50 nM)
2 | C=CC(=O)Nc1cc(Nc2cc(N3OCC[C@@H]3c3ccc(F)c(Cl)c3)ncn2)c(OC)cc1N1CC[C@@H](N(C)C)C1 [compound 756, N-(5-((6-((R)-3-(3-chloro-4-fluorophenyl)isoxazolidine-2-yl)pyrimidine-4-yl)amino)-2-((R)-3-(dimethylamino)pyrolidine-1-yl)-4-methoxyphenyl) acrylamide] | A (GI50 < 50 nM)
3 | C=CC(=O)Nc1cc(Nc2cc(N3OCC[C@@H]3c3ccc(F)cc3F)ncn2)c(OC)cc1N1C[C@H]2C[C@@H]1CN2CC [compound 385, N-(5-((6-((R)-3-(2,4-difluorophenyl)isoxazolidine-2-yl)pyrimidine-4-yl)amino)-2-((1R,4R)-5-ethyl-2,5-diazabicyclo[2.2.1]heptane-2-yl)-4-methoxyphenyl) acrylamide] | A (GI50 < 50 nM)
4 | C=CC(=O)Nc1cc(Nc2cc(N3OCC[C@@H]3c3cccc(C#N)c3)ncn2)c(OC)cc1N(C)CCN(C)C [compound 392, N-(5-((6-((R)-3-(3-cyanophenyl)isoxazolidine-2-yl)pyrimidine-4-yl)amino)-2-((2-(dimethylamino)ethyl)(methyl)amino)-4-methoxyphenyl) acrylamide] | A (GI50 < 50 nM)
5 | C=CC(=O)Nc1cc(Nc2cc(N3OCC[C@@H]3c3cccc(Cl)c3Cl)ncn2)c(OC)cc1N1CCN(C2CC2)[C@H](C)C1 [compound 564, N-(2-((R)-4-cyclopropyl-3-methylpiperazine-1-yl)-5-((6-((R)-3-(2,3-dichlorophenyl)isoxazolidine-2-yl)pyrimidine-4-yl)amino)-4-methoxyphenyl) acrylamide] | A (GI50 < 50 nM)
6 | C=CC(=O)Nc1cc(Nc2cc(N3OCC[C@@H]3c3ccc(F)cc3F)ncn2)c(OC)cc1N1CCC(N2C[C@H]3C[C@@H]2CO3)CC1 [compound 423, N-(2-(4-((1R,4R)-2-oxa-5-azabicyclo [2.2.1]heptane-5-yl)piperidine-1-yl)-5-((6-((R)-3-(2,4-difluorophenyl)isoxazolidine-2-yl)pyrimidine-4-yl)amino)-4-methoxyphenyl) acrylamide] | A (GI50 < 50 nM)
7 | C=CC(=O)Nc1cc(Nc2cc(N3OCC[C@H]3c3c(F)cccc3F)ncn2)c(OC)cc1N1CCC(N2CCN(CC)CC2)CC1 [compound 312, N-(5-((6-((S)-3-(2,6-difluorophenyl)isoxazolidine-2-yl)pyrimidine-4-yl)amino)-2-(4-(4-ethylpiperazine-1-yl)piperidine-1-yl)-4-methoxyphenyl) acrylamide] | C (500 nM ≤ GI50 < 5000 nM)
8 | C=CC(=O)Nc1cc(Nc2cc(N3OCC[C@@H]3c3ccc(C)nc3)ncn2)c(OC)cc1N1CCC(N2CCN(C)CC2)CC1 [Example 47, N-(4-methoxy-2-(4-(4-methylpiperazine-1-yl)piperidine-1-yl)-5-((6((R)-3-(6-methylpyridine-3-yl)isoxazolidine-2-yl)pyrimidine-4-yl)amino)phenyl) acrylamide] | B (50 nM ≤ GI50 < 500 nM)
9 | C=CC(=O)Nc1cc(Nc2cc(N3OCC[C@@H]3c3cccc(C#N)c3)ncn2)c(OC)cc1N1CCC(N2CCN(C(C)=O)CC2)CC1 [compound 434, N-(2-(4-(4-acetylpiperazine-1-yl)piperidine-1-yl)-5-((6-((R)-3-(3-cyanophenyl)isoxazolidine-2-yl)pyrimidine-4-yl)amino)-4-methoxyphenyl) acrylamide] | A (GI50 < 50 nM)
10 | C=CC(=O)Nc1cc(Nc2cc(N3OCC[C@@H]3c3ccc(Cl)c(Cl)c3F)ncn2)c(OC)cc1N1CCC(N2CC[C@@H](N(C)C)C2)CC1 [compound 771, N-(5-((6-((R)-3-(3,4-dichloro-2-fluorophenyl)isoxazolidine-2-yl)pyrimidine-4-yl)amino)-2-(4-((R)-3-(dimethylamino)pyrolidine-1-yl)piperidine-1-yl)-4-methoxyphenyl) acrylamide] | B (50 nM ≤ GI50 < 500 nM)
11 | C=CC(=O)Nc1cc(Nc2cc(N3OCC[C@@H]3c3ccc(F)cc3F)ncn2)c(OC)cc1N1CCN(C2COC2)CC1 [compound 383, N-(5-((6-((R)-3-(2,4-difluorophenyl)isoxazolidine-2-yl)pyrimidine-4-yl)amino)-4-methoxy-2-(4-(oxetane-3-yl)piperazine-1-yl)phenyl)acrylamide] | A (GI50 < 50 nM)
12 | C=CC(=O)Nc1cc(Nc2cc(N3OCC[C@@H]3c3ccc(F)cc3F)ncn2)c(OC)cc1N1CCC(N2CCC(N3CCN(C)CC3)CC2)CC1 [compound 477, N-(5-((6-((R)-3-(2,4-difluorophenyl)isoxazolidine-2-yl)pyrimidine-4-yl)amino)-4-methoxy-2-(4-(4-methylpiperazine-1-yl)-[1,4'-bipiperidine]-1'-yl)phenyl)acrylamide] | A (GI50 < 50 nM)
13 | C=CC(=O)Nc1cc(Nc2cc(N3OCC[C@@H]3c3ccc4ccccc4c3)ncn2)c(OC)cc1N1CCC(N2CCOCC2)CC1 [compound 555, N-(4-methoxy-2-(4-morpholinopiperidine-1-yl)-5-((6-((R)-3-(naphthalene-2-yl)isoxazolidine-2-yl)pyrimidine-4-yl)amino)phenyl)acrylamide] | B (50 nM ≤ GI50 < 500 nM)
14 | C=CC(=O)Nc1cc(Nc2cc(N3OCC[C@@H]3c3cc(F)ccc3F)ncn2)c(OC)cc1N1CCC(N2CCN(C)[C@H](C)C2)CC1 [compound 851, N-(5-((6-((R)-3-(2,5-difluorophenyl)isoxazolidine-2-yl)pyrimidine-4-yl)amino)-2-(4-((R)-3,4-dimethylpiperazine-1-yl)piperidine-1-yl)-4-methoxyphenyl) acrylamide] | A (GI50 < 50 nM)
15 | C=CC(=O)Nc1cc(Nc2cc(N3OCC[C@@H]3c3cc(F)cc(F)c3)ncn2)c(OC)cc1N1CCC(N2C[C@H]3CCN(C)[C@H]3C2)CC1 [compound 445, N-(5-((6-((R)-3-(3,5-difluorophenyl)isoxazolidine-2-yl)pyrimidine-4-yl)amino)-4-methoxy-2-(4-((3aR,6aR)-1-methylhexahydropyrrolo [3,4-b]pyrrole-5(1H)-yl)piperidine-1-yl)phenyl)acrylamide] | A (GI50 < 50 nM)
16 | C=CC(=O)Nc1cc(Nc2cc(N3OCC[C@@H]3c3ccc4ccccc4c3)ncn2)c(OC)cc1N1CCC(N2CCN(CC)CC2)CC1 [compound 515, N-(2-(4-(4-ethylpiperazine-1-yl)piperidine-1-yl)-4-methoxy-5-((6-((R)-3-(naphthalene-2-yl)isoxazolidine-2-yl)pyrimidine-4-yl)amino)phenyl)acrylamide] | B (50 nM ≤ GI50 < 500 nM)
17 | C=CC(=O)Nc1cc(Nc2cc(N3OCC[C@@H]3c3c(F)cccc3F)ncn2)c(OC)cc1N1CCC(N2CCN(C3CC3)[C@H](C)C2)CC1 [Example 137, N-(2-(4-((R)-4-cyclopropyl-3-methylpiperazine-1-yl)piperidine-1-yl)-5-((6-((R)-3-(2,6-difluorophenyl)isoxazolidine-2-yl)pyrimidine-4-yl)amino)-4-methoxyphenyl) acrylamide] | B (50 nM ≤ GI50 < 500 nM)
18 | C=CC(=O)Nc1cc(Nc2cc(N3OCC[C@@H]3c3cccc(C#N)c3)ncn2)c(OC)cc1N1CCC(N2CCN(C(C)C)CC2)CC1 [compound 494, N-(5-((6-((R)-3-(3-cyanophenyl)isoxazolidine-2-yl)pyrimidine-4-yl)amino)-2-(4-(4-isopropylpiperazine-1-yl)piperidine-1-yl)-4-methoxyphenyl) acrylamide] | A (GI50 < 50 nM)
19 | C=CC(=O)Nc1cc(Nc2cc(N3OCC[C@@H]3c3cc(F)cc(F)c3)ncn2)c(OC)cc1N1CC[C@H](N2CCOCC2)C1 [Example 272, N-(5-((6-((R)-3-(3,5-difluorophenyl)isoxazolidine-2-yl)pyrimidine-4-yl)amino)-4-methoxy-2-((S)-3-morpholinopyrolidine-1-yl)phenyl)acrylamide] | B (50 nM ≤ GI50 < 500 nM)
20 | C=CC(=O)Nc1cc(Nc2cc(N3OCC[C@@H]3c3cccc(C(F)(F)F)c3)ncn2)c(OC)cc1N1CCC(N2CCN(C)CC2)CC1 [compound 453, N-(4-methoxy-2-(4-(4-methylpiperazine-1-yl)piperidine-1-yl)-5-((6-((R)-3-(3-(trifluoromethyl)phenyl)isoxazolidine-2-yl)pyrimidine-4-yl)amino)phenyl)acrylamide] | A (GI50 < 50 nM)
21 | C=CC(=O)Nc1cc(Nc2cc(N3OCC[C@@H]3Cc3cccc(F)c3C)ncn2)c(OC)cc1N1CC[C@@H](N(C)C)C1 [compound 1002, N-(2-((R)-3-(dimethylamino)pyrolidine-1-yl)-5-((6-((S)-3-(3-fluoro-2-methylbenzyl)isoxazolidine-2-yl)pyrimidine-4-yl)amino)-4-methoxyphenyl) acrylamide] | A (GI50 < 50 nM)
22 | C=CC(=O)Nc1cc(Nc2cc(N3OCC[C@@H]3c3cccc(C(F)(F)F)c3)ncn2)c(OC)cc1N1CCC(N2CCN(C3CC3)[C@@H](C)C2)CC1 [compound 941, N-(2-(4-((S)-4-cyclopropyl-3-methylpiperazine-1-yl)piperidine-1-yl)-4-methoxy-5-((6-((R)-3-(3-(trifluoromethyl)phenyl)isoxazolidine-2-yl)pyrimidine-4-yl)amino)phenyl) acrylamide] | A (GI50 < 50 nM)
